These are literature values, as cited in patent publication US6423697B1, “Intraoral topical anti-inflammatory treatment for relief of migraine, tension-type headache, post-traumatic headache, facial pain, and cervical-muscle spasm” (priority 1999, dated 2002).

The conditions of data set [1]: oral medication.

Turning to “2-(3benzoxyphenyl)-propionic acid [Ketoprofen]”, the “time to peak plasma levels” value (oral administration) was 0.5 to 2 h.

As for `CC(=O)Oc1ccccc1C(=O)O` [Aspirin, salicylic acetate], the plasma half-life (in vivo) was 4.7 to 9 h. Where the note is “oral administration”, the “time peak plasma levels are maintained” value is 4 to 6 h and the “time to peak plasma levels” value was 1 to 2 h. Moreover, the effectiveness for headache result in data set [1] is on record as “mildly effective”.

For `CC(C)Cc1ccc(C(C)C(=O)O)cc1` (centres unmarked) [Ibuprofen, 2-(p-Isobutylphenyl) propionic acid], the “time to peak plasma levels” value (oral administration) was 1 to 2 h. Besides, the effectiveness for headache entry in data set [1] is given as “mildly effective”.

For the compound `COc1ccc2cc([C@H](C)C(=O)O)ccc2c1` [Naproxen, 6-methoxy methyl-2-naphtalene acetic acid], the effectiveness for headache entry in data set [1] is on record as “mildly effective”.
